Assay results: patent US9278953B2, “Antagonists of prostaglandin EP3 receptor” (Pfizer Inc., priority 2013, dated 2016)

Biological target: human EP3 receptor (Homo sapiens (Human), UniProt P43115)
Test: EP3 Radioligand SPA Binding Assay
Conditions: [3H]-PGE2 displacement, Millipore EP3 Chem1 membranes; geometric mean Ki, calculated from IC50 by Cheng-Prusoff
Method: EP3 Radioligand SPA Binding Assay
Compound affinity was expressed as a […], defined as the concentration of compound required to decrease [^3H] PGE2 binding by 50% for a specific membrane batch at a given concentration of radioligand.
Test compounds were half log serially diluted in 100% DMSO (J. T. Baker #922401). 1 μL of each compound was added to appropriate wells of a 384-well plate (Matrix Cat #4322). Unlabeled PGE2 (Tocris Cat #2296) at a final concentration of 1 μM was used to determine non-specific binding. 1 μL of 100% DMSO (J. T. Baker #922401) was used to determine total binding. Millipore EP3 Chem1 membranes (prepared in-house from cell paste derived from the Millipore ChemiSCREEN™ Human Recombinant EP3 Prostanoid Receptor Calcium-Optimized Stable Cell Line (Millipore Cat #HTS092C. http://www.millipore.com/catalogue/item/hts092c)) were thawed and diluted in binding buffer (50 mM Hepes pH 7.4 (Lonza Cat #17-737), 5 mM MgCl2 (Sigma-M1028), and 0.1% BSA (Sigma A-7409)) to a final concentration of 1 μg/25 μL. 25 μL of diluted membranes were added to prepared compound plates. WGA coated PVT SPA Beads (Perkin Elmer Cat #RPNQ0060) were diluted in binding buffer to a concentration of 4 μg/ul, and 25 μL of the SPA bead mixture was then added to each well for a final assay concentration of 100 μg/well. [^3H]-PGE2 (Perkin Elmer Cat #NET428) was diluted in binding buffer to a concentration of […], and 25 μL was added to all wells for a final assay concentration of 1.125 nM. Plates were incubated for 30 minutes at r.t. (approximately 25° C.) with shaking. Radioactivity associated with each well was measured after a 10 hour incubation using a Wallac Trilux MicroBeta plate-based scintillation counter and a normalized protocol at 1 minute read/well. The Kd for [^3H]-PGE2 was determined by carrying out saturation binding, with data analysis by non-linear regression, fit to a one-site hyperbola (Graph Pad Prism). IC50 determinations were made from competition curves, analyzed with a proprietary curve fitting program (SIGHTS) and a 4-parameter logistic dose response equation. Ki values were calculated from IC50 values, using the Cheng-Prusoff equation.
Results are reported as geometric mean Ki values.

human EP3 receptor, sequence (P43115 whole entry): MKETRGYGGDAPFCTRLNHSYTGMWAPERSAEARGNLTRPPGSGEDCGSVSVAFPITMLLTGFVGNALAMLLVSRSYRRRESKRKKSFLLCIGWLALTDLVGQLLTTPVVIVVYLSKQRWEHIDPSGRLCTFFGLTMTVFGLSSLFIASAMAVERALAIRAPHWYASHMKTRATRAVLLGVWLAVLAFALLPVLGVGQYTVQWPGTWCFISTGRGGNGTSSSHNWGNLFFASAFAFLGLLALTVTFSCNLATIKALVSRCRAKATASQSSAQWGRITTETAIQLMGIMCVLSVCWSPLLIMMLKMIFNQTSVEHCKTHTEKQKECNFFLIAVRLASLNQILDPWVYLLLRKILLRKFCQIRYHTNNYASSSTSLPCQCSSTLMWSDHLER

Row | Compound | Ki [nM]
1 | CCn1ncc2c(F)cc(-c3ccc([C@@]4(C)CCCNC4=O)c(=O)[nH]3)cc21 [Example 1, (R)-6-(1-ethyl-4-fluoro-1H-indazol-6-yl)-3-(3-methyl-2-oxopiperidin-3-yl)pyridin-2(1H)-one] | 2
2 | Cn1ncc2c(Cl)cc(-c3ccc([C@@]4(C)CCCNC4=O)c(=O)[nH]3)cc21 [Example 2, (R)-6-(4-chloro-1-methyl-1H-indazol-6-yl)-3-(3-methyl-2-oxopiperidin-3-yl)pyridin-2(1H)-one] | 3.6
3 | CCn1ncc2c(C)cc(-c3ccc([C@@]4(C)CCCNC4=O)c(=O)[nH]3)cc21 [Example 3, (R)-6-(1-ethyl-4-methyl-1H-indazol-6-yl)-3-(3-methyl-2-oxopiperidin-3-yl)pyridin-2(1H)-one] | 9.5
4 | Cn1ccc2ccc(-c3ccc([C@@]4(C)CCCNC4=O)c(=O)[nH]3)cc21 [Example 4, (R)-6-(1-methyl-1H-indol-6-yl)-3-(3-methyl-2-oxopiperidin-3-yl)pyridin-2(1H)-one] | 11.2
5 | Cn1ccc2cc(-c3ccc([C@@]4(C)CCCNC4=O)c(=O)[nH]3)ccc21 [Example 5, (R)-6-(1-methyl-1H-indol-5-yl)-3-(3-methyl-2-oxopiperidin-3-yl)pyridin-2(1H)-one] | 12.2
6 | Cn1ccc2cc(-c3ccc([C@@]4(C)CCNC4=O)c(=O)[nH]3)ccc21 [Example 6, (R)-6-(1-methyl-1H-indol-5-yl)-3-(3-methyl-2-oxopyrrolidin-3-yl)pyridin-2(1H)-one] | 46

Second part, the molecule after the results:

Row | Ki [nM] | Compound
7 | 7.8 | Cn1cnc2cc(-c3ccc([C@@]4(C)CCCNC4=O)c(=O)[nH]3)cc(Cl)c21 [Example 7, (R)-6-(7-chloro-1-methyl-1H-benzo[d]imidazol-5-yl)-3-(3-methyl-2-oxopiperidin-3-yl)pyridin-2(1H)-one]
8 | 14.2 | Cn1ncc2c(Cl)cc(-c3ccc([C@@]4(C)CCNC4=O)c(=O)[nH]3)cc21 [Example 8, (R)-6-(4-chloro-1-methyl-1H-indazol-6-yl)-3-(3-methyl-2-oxopyrrolidin-3-yl)pyridin-2(1H)-one]
9 | 11.9 | Cn1ccc2cc(-c3ccc([C@@]4(C)CCNC4=O)c(=O)[nH]3)cc(F)c21 [Example 9, (R)-6-(7-fluoro-1-methyl-1H-indol-5-yl)-3-(3-methyl-2-oxopyrrolidin-3-yl)pyridin-2(1H)-one]
10 | 19.9 | CCn1ccc2ccc(-c3ccc([C@@]4(C)CCNC4=O)c(=O)[nH]3)cc21 [Example 10, (R)-6-(1-ethyl-1H-indol-6-yl)-3-(3-methyl-2-oxopyrrolidin-3-yl)pyridin-2(1H)-one]
11 | 25 | Cc1cc(-c2ccc([C@@]3(C)CCCNC3=O)c(=O)[nH]2)cc2c1cnn2C [Example 12, (R)-6-(1,4-dimethyl-1H-indazol-6-yl)-3-(3-methyl-2-oxopiperidin-3-yl)pyridin-2(1H)-one]
12 | 29.2 | C[C@]1(c2ccc(-c3cc(F)c4[nH]nc(C5CC5)c4c3)[nH]c2=O)CCCNC1=O [Example 14, (R)-6-(3-cyclopropyl-7-fluoro-1H-indazol-5-yl)-3-(3-methyl-2-oxopiperidin-3-yl)pyridin-2(1H)-one]
